Assay type in all cases: biochemical
The target of assay [1] is gelatinase A-catalytic domain. The assay is described as follows: gelatinase A catalytic domain hydrolysis of thiopeptolide, GA CD (T). Particulars: thiopeptolide substrate. An excerpt:
(§1) Table I below presents inhibitory activity for representative invention compounds of Formula I. In the table, GA CD (T) refers to gelatinase A-catalytic domain hydrolysis of thiopeptolide substrate; GA CD (Gel) refers to gelatinase A-catalytic domain hydrolysis of gelatin substrate; SCD (T) refers to stromelysin catalytic domain hydrolysis of thiopeptolide.

Assay [2] addresses gelatinase A-catalytic domain. Kind of assay: gelatinase A catalytic domain hydrolysis of gelatin, GA CD (Gel). Particulars: gelatin substrate.
Source text: as §1

The target in assay [3] is T1, stromelysin catalytic domain (Homo sapiens, UniProt P08254).
T1 construct: stromelysin catalytic domain hydrolysis of thiopeptolide
T1 sequence (P08254 100-272 limits assumed): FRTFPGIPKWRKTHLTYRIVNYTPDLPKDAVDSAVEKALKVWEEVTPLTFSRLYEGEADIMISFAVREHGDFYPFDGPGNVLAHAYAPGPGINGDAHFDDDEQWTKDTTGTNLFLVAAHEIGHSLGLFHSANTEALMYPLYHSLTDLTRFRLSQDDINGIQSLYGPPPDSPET
Kind of assay: stromelysin catalytic domain hydrolysis of thiopeptolide, SCD (T). Particulars: thiopeptolide substrate.
Source text: as §1

The next assay concerns the target T2, full-length collagenase (Homo sapiens, UniProt P03956).
T2 construct: full-length collagenase hydrolysis of thiopeptolide substrate (FLC)
T2 sequence (P03956 100-469): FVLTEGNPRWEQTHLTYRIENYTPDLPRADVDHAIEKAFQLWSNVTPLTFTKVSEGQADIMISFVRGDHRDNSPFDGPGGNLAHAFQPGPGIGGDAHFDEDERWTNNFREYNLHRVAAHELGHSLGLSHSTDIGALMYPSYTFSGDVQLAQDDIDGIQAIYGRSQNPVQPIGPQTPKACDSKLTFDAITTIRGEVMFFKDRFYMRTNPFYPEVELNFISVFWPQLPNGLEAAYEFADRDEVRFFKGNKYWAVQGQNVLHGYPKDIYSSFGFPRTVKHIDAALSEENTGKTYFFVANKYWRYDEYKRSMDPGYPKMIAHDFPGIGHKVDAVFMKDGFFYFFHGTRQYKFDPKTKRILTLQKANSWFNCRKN
The assay is described as follows: full-length collagenase hydrolysis of thiopeptolide substrate (FLC). Particulars: full-length enzyme. An excerpt: The compounds were additionally evaluated for their ability to inhibit full-length collagenase hydrolysis of thiopeptolide substrate (FLC) and full-length gelatinase B (FLGB) hydrolysis of thiopeptolide.

Structures are written as SMILES.

Regarding `O=C(O)[C@H](Cc1ccccc1)NS(=O)(=O)c1ccc(-c2ccc(Br)cc2)cc1` [Example 10, (S)-2-(4'-Bromo-biphenyl-4-sulfonylamino)-3-phenyl-propionic Acid], the values for the 50% inhibitory concentration (IC50) in assay [1] and in assay [2] were 0.026 µM and 0.045 µM, respectively.

For `CC(C)[C@H](NS(=O)(=O)c1ccc(-c2ccc(Br)cc2F)cc1)C(=O)O` [Example 8, (S)-2-(4'-Bromo-2'-fluoro-biphenyl-4-sulfonylamino)-3-methyl-butyric Acid], the concentration for half-maximal inhibition (IC50) – broadly, the concentration that gives 50% inhibition – in assay [1] was 0.006 µM; in assay [2] it was 0.019 µM.

For `C[C@H](NS(=O)(=O)c1ccc(-c2ccc(Br)cc2)cc1)C(=O)O` [Example 13, (S)-2-(4'-Bromo-biphenyl-4-sulfonylamino)-propionic Acid], the 50% inhibitory concentration (IC50) in assay [1] was found to be 0.019 µM; in assay [2], 0.022 µM.

`CC(C)[C@H](NS(=O)(=O)c1ccc(-c2ccc(C(F)(F)F)cc2)cc1)C(=O)O` [Example 19, (S)-3-Methyl-2-(4'-trifluoromethyl-biphenyl-4-sulfonylamino)-butyric Acid]: the 50% inhibitory concentration (IC50) in assay [3] came to 0.014 µM.

Regarding `COc1ccc(-c2ccc(S(=O)(=O)N[C@H](C(=O)O)C(C)C)cc2)cc1` [Example 15, (S)-2-(4'-Methoxy-biphenyl-4-sulfonylamino)-3-methyl-butyric Acid], the figures for the IC50 in assay [1] and in assay [2] were 0.002 µM and 0.014 µM, respectively.

Consider `CC(C)[C@H](NS(=O)(=O)c1ccc(-c2cccc(Br)c2)cc1)C(=O)O` [Example 7, (S)-2-(3'-Bromo-biphenyl-4-sulfonylamino)-3-methyl-butyric Acid], for which the 50% inhibitory concentration (IC50) in assay [1] turned out to be 0.731 µM; in assay [2] it was 1.3 µM.

`CC(C)[C@H](NS(=O)(=O)c1ccc(-c2ccc(F)cc2)cc1)C(=O)O` [Example 16, (S)-2-(4'-Fluoro-biphenyl-4-sulfonylamino)-3-methyl-butyric Acid]: the values for the IC50 in assay [1] and in assay [2] were 0.051 µM and 0.094 µM, respectively.

In the case of `CC(C)[C@H](NS(=O)(=O)c1ccc(-c2ccc(C#N)cc2)cc1)C(=O)O` [Example 5, (S)-2-(4'-Cyano-biphenyl-4-sulfonylamino)-3-methyl-butyric Acid], the IC50 in assay [1] was 0.032 µM; in assay [2] it was 0.157 µM.

As to `O=C(O)CNS(=O)(=O)c1ccc(-c2ccc(Br)cc2)cc1` [Example 12, (4'-Bromo-biphenyl-4-sulfonylamino)-acetic Acid], the values for the half-maximal inhibitory concentration (IC50) in assay [1] and in assay [2] were 0.021 µM and 0.079 µM, respectively.

On to `CC(C)C[C@H](NS(=O)(=O)c1ccc(-c2ccc(Br)cc2)cc1)C(=O)O` [Example 14, (S)-2-(4'-Bromo-biphenyl-4-sulfonylamino)-4-methyl-pentanoic Acid], for which the figures for the half-maximal inhibitory concentration (IC50) in assay [1] and in assay [2] were 0.015 µM and 0.029 µM, respectively.

`CC(C)[C@H](NS(=O)(=O)c1ccc(-c2ccc(Cl)cc2)cc1)C(=O)O` [Example 2, (S)-2-(4'-Chloro-biphenyl-4-sulfonylamino)-3-methyl-butyric Acid] showed an IC50 against full-length collagenase of 7.5 µM.

Source of the values: patent publication US5756545A, “Biphenysulfonamide matrix metal alloproteinase inhibitors” (priority 1997, dated 1998).
